Measurements: publication PMC5218480 (PLoS ONE, 2017)

Test system: MV-4-11 cells
Test: Gene expression microarray analysis (Affymetrix PrimeView) and GSEA
Type: cell-based, human
Design: RFU PODN (11730768_x_at) / Fold change /veh PODN (11730768_x_at) / RFU LINC00158 (11744669_a_at) / Fold change /veh LINC00158 (11744669_a_at) / RFU DUSP10 (11751237_a_at) / Fold change /veh DUSP10 (11751237_a_at) / RFU ID3 (11757404_x_at) / Fold change /veh ID3 (11757404_x_at) / RFU PLEKHG5 (11737974_s_at) / Fold change /veh PLEKHG5 (11737974_s_at) / RFU LRRC4B (11730491_at) / Fold change /veh LRRC4B (11730491_at) / RFU GIMAP4 (11747438_a_at) / Fold change /veh GIMAP4 (11747438_a_at) / RFU KRT8 (11758183_x_at) / Fold change /veh KRT8 (11758183_x_at) / RFU CNN1 (11734310_a_at) / Fold change /veh CNN1 (11734310_a_at) / RFU VPS37D (11726825_at) / Fold change /veh VPS37D (11726825_at) / RFU C10orf10 (11716522_x_at) / Fold change /veh C10orf10 (11716522_x_at) / RFU KIR2DL2 /// KIR2DL4 /// KIR2DL5A /// KIR2DL5B /// KIR2DS1 /// KIR2DS2 /// KIR2DS3 /// KIR2DS4 /// KIR3DL3 /// KIR3DL3 /// KIR3DS1 (11738374_at) / Fold change /veh KIR2DL2 /// KIR2DL4 /// KIR2DL5A /// KIR2DL5B /// KIR2DS1 /// KIR2DS2 /// KIR2DS3 /// KIR2DS4 /// KIR3DL3 /// KIR3DL3 /// KIR3DS1 (11738374_at) / RFU C1QL1 (11718748_at) / Fold change /veh C1QL1 (11718748_at) / RFU TMPRSS4 (11747572_a_at) / Fold change /veh TMPRSS4 (11747572_a_at) / RFU HAMP (11756126_x_at) / Fold change /veh HAMP (11756126_x_at) / RFU RNFT2 (11725882_a_at) / Fold change /veh RNFT2 (11725882_a_at) / RFU NR4A2 (11747474_a_at) / Fold change /veh NR4A2 (11747474_a_at) / RFU ABCC12 (11746883_a_at) / Fold change /veh ABCC12 (11746883_a_at) / RFU TMEM136 (11760407_x_at) / Fold change /veh TMEM136 (11760407_x_at) / RFU CLDN22 /// WWC2 (11732394_at) / Fold change /veh CLDN22 /// WWC2 (11732394_at) / RFU HLA-DPB1 (11760878_x_at) / Fold change /veh HLA-DPB1 (11760878_x_at) / RFU SPINT1 (11716480_a_at) / Fold change /veh SPINT1 (11716480_a_at) / RFU GAP43 (11754022_s_at) / Fold change /veh GAP43 (11754022_s_at) / RFU A4GNT (11735810_at) / Fold change /veh A4GNT (11735810_at) / RFU PRB3 (11715151_x_at) / Fold change /veh PRB3 (11715151_x_at) / RFU TUBB4B (11761932_at) / Fold change /veh TUBB4B (11761932_at) / RFU CAPN14 (11732068_a_at) / Fold change /veh CAPN14 (11732068_a_at) / RFU TMCC2 (11721928_a_at) / Fold change /veh TMCC2 (11721928_a_at) / RFU IRGQ (11745062_a_at) / Fold change /veh IRGQ (11745062_a_at) / RFU FAM174B (11720279_a_at) / Fold change /veh FAM174B (11720279_a_at) / RFU TMPRSS4 (11748680_a_at) / Fold change /veh TMPRSS4 (11748680_a_at) / RFU FAM212B (11763350_a_at) / Fold change /veh FAM212B (11763350_a_at) / RFU PLEKHG5 (11743358_a_at) / Fold change /veh PLEKHG5 (11743358_a_at) / RFU ZSCAN30 (11745921_a_at) / Fold change /veh ZSCAN30 (11745921_a_at) / RFU CMKLR1 (11741424_a_at) / Fold change /veh CMKLR1 (11741424_a_at) / RFU LOC101060620 /// MAPK8IP1 (11723275_at) / Fold change /veh LOC101060620 /// MAPK8IP1 (11723275_at) / RFU SPTSSB (11747773_x_at) / Fold change /veh SPTSSB (11747773_x_at) / RFU PRSS12 (11739890_at) / Fold change /veh PRSS12 (11739890_at) / RFU BIN1 (11741810_x_at) / Fold change /veh BIN1 (11741810_x_at) / RFU WNT11 (11732464_a_at) / Fold change /veh WNT11 (11732464_a_at) / RFU C10orf10 (11716521_a_at) / Fold change /veh C10orf10 (11716521_a_at) / RFU C5orf56 (11738089_at) / Fold change /veh C5orf56 (11738089_at) / RFU CYB561 (11721691_x_at) / Fold change /veh CYB561 (11721691_x_at) / RFU ANKRD19P (11752326_a_at) / Fold change /veh ANKRD19P (11752326_a_at) / RFU OR2T12 /// OR2T33 /// OR2T8 (11738714_s_at) / Fold change /veh OR2T12 /// OR2T33 /// OR2T8 (11738714_s_at) / RFU VCAN (11748164_a_at) / Fold change /veh VCAN (11748164_a_at) / RFU JSRP1 (11732532_at) / Fold change /veh JSRP1 (11732532_at) / RFU KRTAP10-11 (11738290_x_at) / Fold change /veh KRTAP10-11 (11738290_x_at) / RFU MYO3A (11730013_a_at) / Fold change /veh MYO3A (11730013_a_at) / RFU EBF3 (11725865_a_at) / Fold change /veh EBF3 (11725865_a_at) / RFU CAMK2N1 (11719241_x_at) / Fold change /veh CAMK2N1 (11719241_x_at) / RFU C5orf56 (11738088_a_at) / Fold change /veh C5orf56 (11738088_a_at) / RFU OLFML3 (11715873_a_at) / Fold change /veh OLFML3 (11715873_a_at) / RFU LOC100653217 /// NTM (11731650_a_at) / Fold change /veh LOC100653217 /// NTM (11731650_a_at) / RFU MAPK11 (11762145_a_at) / Fold change /veh MAPK11 (11762145_a_at) / RFU FIZ1 (11724087_x_at) / Fold change /veh FIZ1 (11724087_x_at) / RFU OASL (11726364_x_at) / Fold change /veh OASL (11726364_x_at) / RFU SOX15 (11748057_x_at) / Fold change /veh SOX15 (11748057_x_at) / RFU CD79A (11719716_a_at) / Fold change /veh CD79A (11719716_a_at) / RFU HIST1H1D (11736915_at) / Fold change /veh HIST1H1D (11736915_at) / RFU CASKIN2 (11723855_a_at) / Fold change /veh CASKIN2 (11723855_a_at) / RFU LOC730098 (11760151_x_at) / Fold change /veh LOC730098 (11760151_x_at) / RFU OR4N2 (11742367_at) / Fold change /veh OR4N2 (11742367_at) / RFU PRRT2 (11749266_a_at) / Fold change /veh PRRT2 (11749266_a_at) / RFU SNX32 (11753110_a_at) / Fold change /veh SNX32 (11753110_a_at) / RFU CDHR5 (11726645_a_at) / Fold change /veh CDHR5 (11726645_a_at) / RFU RCAN1 (11760418_a_at) / Fold change /veh RCAN1 (11760418_a_at) / RFU FAM167A (11723789_a_at) / Fold change /veh FAM167A (11723789_a_at) / RFU FAM26E (11764081_at) / Fold change /veh FAM26E (11764081_at) / RFU ISYNA1 (11749810_s_at) / Fold change /veh ISYNA1 (11749810_s_at) / RFU ACY1 (11761880_at) / Fold change /veh ACY1 (11761880_at) / RFU 11764098_at / Fold change /veh 11764098_at / RFU SAMD14 (11745864_x_at) / Fold change /veh SAMD14 (11745864_x_at) / RFU NPB (11741838_a_at) / Fold change /veh NPB (11741838_a_at) / RFU TMPRSS6 (11731388_a_at) / Fold change /veh TMPRSS6 (11731388_a_at) / RFU KRTAP10-2 (11738614_at) / Fold change /veh KRTAP10-2 (11738614_at) / RFU ARHGAP8 /// PRR5-ARHGAP8 (11727945_x_at) / Fold change /veh ARHGAP8 /// PRR5-ARHGAP8 (11727945_x_at) / RFU KRTAP5-7 /// NADSYN1 (11734609_at) / Fold change /veh KRTAP5-7 /// NADSYN1 (11734609_at) / RFU RASL12 (11751679_a_at) / Fold change /veh RASL12 (11751679_a_at) / RFU CDKN2B (11736163_a_at) / Fold change /veh CDKN2B (11736163_a_at) / RFU PRF1 (11729649_at) / Fold change /veh PRF1 (11729649_at) / RFU, ZNF638 /// ZNF638-IT1 / Fold change vs veh, ZNF638 /// ZNF638-IT1 / RFU, PANK3 / Fold change vs veh, PANK3 / RFU, SH3YL1 / Fold change vs veh, SH3YL1 / RFU, ZEB2 / Fold change vs veh, ZEB2 / RFU, NRIP1 / Fold change vs veh, NRIP1 / RFU, PTTG1IP / Fold change vs veh, PTTG1IP / RFU, CAPN2 / Fold change vs veh, CAPN2 / RFU, MED14 / Fold change vs veh, MED14 / RFU, SNORA58 / Fold change vs veh, SNORA58 / RFU, C1orf63 / Fold change vs veh, C1orf63 / RFU, LRRFIP1 / Fold change vs veh, LRRFIP1 / RFU, NDUFAF7 / Fold change vs veh, NDUFAF7 / RFU, SLC12A2 / Fold change vs veh, SLC12A2 / RFU, IBTK / Fold change vs veh, IBTK / RFU, ESF1 / Fold change vs veh, ESF1 / Fold change vs veh, TMEM50B / RFU, TAOK1 / Fold change vs veh, TAOK1 / RFU, ACBD3 / Fold change vs veh, ACBD3 / RFU, TMA16 / Fold change vs veh, TMA16 / RFU, RWDD3 / Fold change vs veh, RWDD3 / RFU, BCAT1 / Fold change vs veh, BCAT1 / RFU, EDEM3 / Fold change vs veh, EDEM3 / RFU, TMEM33 / Fold change vs veh, TMEM33 / RFU, WDR75 / Fold change vs veh, WDR75 / RFU, AHCTF1 / Fold change vs veh, AHCTF1 / RFU, TFRC / Fold change vs veh, TFRC / RFU, ZDHHC17 / Fold change vs veh, ZDHHC17 / RFU, NOM1 / Fold change vs veh, NOM1 / RFU, ARL8B / Fold change vs veh, ARL8B / RFU, ZBTB11 / Fold change vs veh, ZBTB11 / RFU, TAMM41 / Fold change vs veh, TAMM41 / RFU, KIAA1704 /// LOC100996395 / Fold change vs veh, KIAA1704 /// LOC100996395 / RFU, ING1 / Fold change vs veh, ING1 / RFU, TRMT61B / Fold change vs veh, TRMT61B / RFU, FUBP3 / Fold change vs veh, FUBP3 / RFU, TP53 / Fold change vs veh, TP53 / RFU, TNKS2 / Fold change vs veh, TNKS2 / RFU, ZFP14 / Fold change vs veh, ZFP14 / RFU, ACTR2 / Fold change vs veh, ACTR2 / RFU, PPP3R1 / Fold change vs veh, PPP3R1 / RFU, PIK3R1 / Fold change vs veh, PIK3R1 / RFU, HNRNPA1 / Fold change vs veh, HNRNPA1 / RFU, RNF170 / Fold change vs veh, RNF170 / RFU, ZNF28 / Fold change vs veh, ZNF28 / RFU, RNGTT / Fold change vs veh, RNGTT / RFU, OGT / Fold change vs veh, OGT / RFU, BRD1 / Fold change vs veh, BRD1 / RFU, MARS / Fold change vs veh, MARS / RFU, ZNF655 / Fold change vs veh, ZNF655 / RFU, FAHD1 / Fold change vs veh, FAHD1 / RFU, BDP1 / Fold change vs veh, BDP1 / RFU, LRRCC1 / Fold change vs veh, LRRCC1 / RFU, ARID1A / Fold change vs veh, ARID1A / RFU, ZNF146 / Fold change vs veh, ZNF146 / RFU, ZNF330 / Fold change vs veh, ZNF330 / RFU, GPN3 / Fold change vs veh, GPN3 / RFU, C9orf123 / Fold change vs veh, C9orf123 / RFU, N4BP2L2 / Fold change vs veh, N4BP2L2 / RFU, ARFIP1 / Fold change vs veh, ARFIP1 / RFU, FAM179B / Fold change vs veh, FAM179B / RFU, BCL10 / Fold change vs veh, BCL10 / RFU, UHRF1BP1L / Fold change vs veh, UHRF1BP1L / RFU, BET1 / Fold change vs veh, BET1 / RFU, CNOT2 / Fold change vs veh, CNOT2 / RFU, ZNF268 / Fold change vs veh, ZNF268 / Fold change vs veh, ZNF507 / RFU, DGCR2 / Fold change vs veh, DGCR2 / RFU, WDSUB1 / Fold change vs veh, WDSUB1 / Fold change vs veh, HSP90B1 /// MIR3652 / RFU, ADSS / Fold change vs veh, ADSS / RFU, GK / Fold change vs veh, GK / RFU, ZNF148 / Fold change vs veh, ZNF148 / RFU, TAF9 / Fold change vs veh, TAF9 / RFU, SLC1A5 / Fold change vs veh, SLC1A5 / RFU, SLMO2 / Fold change vs veh, SLMO2 / RFU, ABCC4 / Fold change vs veh, ABCC4 / RFU, LOC101060439 /// RAP1B / Fold change vs veh, LOC101060439 /// RAP1B / RFU, RFX7 / Fold change vs veh, RFX7 / RFU, GTPBP10 / Fold change vs veh, GTPBP10 / RFU, CNEP1R1 / Fold change vs veh, CNEP1R1 / RFU, BIVM-ERCC5 /// ERCC5 / Fold change vs veh, BIVM-ERCC5 /// ERCC5 / RFU, ILF3 / Fold change vs veh, ILF3 / RFU 11762660_at / Fold change /veh 11762660_at / RFU VCAN (11757783_s_at) / Fold change /veh VCAN (11757783_s_at) / RFU DDX43 (11728927_at) / Fold change /veh DDX43 (11728927_at) / RFU KRT8 (11758188_x_at) / Fold change /veh KRT8 (11758188_x_at) / RFU NKD1 (11759106_at) / Fold change /veh NKD1 (11759106_at) / RFU SRD5A1 (11742802_a_at) / Fold change /veh SRD5A1 (11742802_a_at) / RFU TPSAB1 /// TPSB2 (11721975_s_at) / Fold change /veh TPSAB1 /// TPSB2 (11721975_s_at) / RFU GSTM3 (11746129_a_at) / Fold change /veh GSTM3 (11746129_a_at) / RFU IL23R (11737362_x_at) / Fold change /veh IL23R (11737362_x_at) / RFU TMEM51 (11727254_a_at) / Fold change /veh TMEM51 (11727254_a_at) / RFU PIWIL2 (11732686_x_at) / Fold change /veh PIWIL2 (11732686_x_at) / RFU ORM1 (11744905_x_at) / Fold change /veh ORM1 (11744905_x_at) / RFU CCDC152 (11743942_at) / Fold change /veh CCDC152 (11743942_at) / RFU ECM1 (11717891_a_at) / Fold change /veh ECM1 (11717891_a_at) / RFU IL23R (11748794_a_at) / Fold change /veh IL23R (11748794_a_at) / RFU TNFAIP8L3 (11732012_x_at) / Fold change /veh TNFAIP8L3 (11732012_x_at) / RFU MBOAT4 (11741988_at) / Fold change /veh MBOAT4 (11741988_at) / RFU 11764193_at / Fold change /veh 11764193_at / RFU TMEM53 (11763286_at) / Fold change /veh TMEM53 (11763286_at) / RFU MAGEB2 (11727129_at) / Fold change /veh MAGEB2 (11727129_at) / RFU TMEM200A (11744735_a_at) / Fold change /veh TMEM200A (11744735_a_at) / RFU CCDC152 (11751479_a_at) / Fold change /veh CCDC152 (11751479_a_at) / RFU FAM211A (11726209_a_at) / Fold change /veh FAM211A (11726209_a_at) / RFU RGS16 (11746705_a_at) / Fold change /veh RGS16 (11746705_a_at) / RFU VCAN (11755009_s_at) / Fold change /veh VCAN (11755009_s_at) / RFU RHOB (11743442_s_at) / Fold change /veh RHOB (11743442_s_at) / RFU RGS16 (11720943_a_at) / Fold change /veh RGS16 (11720943_a_at) / RFU RGS16 (11720944_at) / Fold change /veh RGS16 (11720944_at) / RFU, VPS4B / Fold change vs veh, VPS4B / RFU, CREB1 / Fold change vs veh, CREB1 / RFU, DNAJC13 / Fold change vs veh, DNAJC13 / RFU, GNAQ / Fold change vs veh, GNAQ / RFU, CDK5R1 / Fold change vs veh, CDK5R1 / RFU, ZRANB3 / Fold change vs veh, ZRANB3 / RFU, CUL4A / Fold change vs veh, CUL4A / RFU, CCNY / Fold change vs veh, CCNY / RFU, UFL1 / Fold change vs veh, UFL1 / RFU, COG3 / Fold change vs veh, COG3 / RFU, DIAPH2 / Fold change vs veh, DIAPH2 / RFU, SKA2 / Fold change vs veh, SKA2 / RFU, AFF3 / Fold change vs veh, AFF3 / RFU, LMF1 / Fold change vs veh, LMF1 / RFU, IPO11 / Fold change vs veh, IPO11 / RFU, DFFB / Fold change vs veh, DFFB / RFU, FOXP1 / Fold change vs veh, FOXP1 / RFU, CARD8 / Fold change vs veh, CARD8 / RFU, STRN3 / Fold change vs veh, STRN3 / RFU, ADK / Fold change vs veh, ADK / RFU, RASSF2 / Fold change vs veh, RASSF2 / RFU, WIPF1 / Fold change vs veh, WIPF1 / RFU, LARP1B / Fold change vs veh, LARP1B / RFU, RASA1 / Fold change vs veh, RASA1 / RFU, RB1 / Fold change vs veh, RB1 / RFU, PPFIA1 / Fold change vs veh, PPFIA1 / RFU, MAT2A / Fold change vs veh, MAT2A / RFU, CCT5 / Fold change vs veh, CCT5 / RFU, WDR92 / Fold change vs veh, WDR92 / RFU, CUX1 / Fold change vs veh, CUX1 / RFU, TTC7A / Fold change vs veh, TTC7A / RFU, TMEM135 / Fold change vs veh, TMEM135 / RFU, DEPTOR / Fold change vs veh, DEPTOR / RFU, CPM / Fold change vs veh, CPM / RFU, DNAJB6 / Fold change vs veh, DNAJB6 / RFU, CACNA2D3 / Fold change vs veh, CACNA2D3 / RFU, DTX4 / Fold change vs veh, DTX4 / RFU, TFCP2 / Fold change vs veh, TFCP2 / RFU, GMCL1 /// GMCL1P1 / Fold change vs veh, GMCL1 /// GMCL1P1 / RFU, AEBP2 / Fold change vs veh, AEBP2 / RFU, SNHG1 /// SNORD22 /// SNORD25 /// SNORD26 /// SNORD27 /// SNORD28 /// SNORD29 /// SNORD31 / Fold change vs veh, SNHG1 /// SNORD22 /// SNORD25 /// SNORD26 /// SNORD27 /// SNORD28 /// SNORD29 /// SNORD31 / Fold change (Aza/veh), C12orf56 (ProbeSet 11735607_a_at) / Fold change (ACY-1035/veh), C12orf56 (ProbeSet 11735607_a_at) / Fold change (Aza/veh), FGFR1OP (ProbeSet 11751329_s_at) / Fold change (ACY-1035/veh), FGFR1OP (ProbeSet 11751329_s_at) / Fold change (Aza/veh), VPS36 (ProbeSet 11739960_a_at) / Fold change (ACY-1035/veh), VPS36 (ProbeSet 11739960_a_at) / RFU SYPL1 (11715823_x_at) / Fold change /veh SYPL1 (11715823_x_at) / RFU IGFBP7 (11715501_s_at) / Fold change /veh IGFBP7 (11715501_s_at) / RFU REEP3 (11722064_at) / Fold change /veh REEP3 (11722064_at) / RFU IGLL1 (11728026_x_at) / Fold change /veh IGLL1 (11728026_x_at): dose or concentration left out as unconfirmed
Details: MV-4-11 cells, 48 hours

**Q.** With `Nc1ccc(-c2cccs2)cc1NC(=O)c1ccc2c(c1)cc(C1CC1)n2CCN1CCOCC1` [ACY-1035] as the compound, how does the “RFU SNX32 (11753110_a_at)” value read?
**A.** 6.46 RFU
